Earlier results as cited in US20010051164A1, “1-0 ALKYLGLYCEROLS FOR PHARMACEUTICAL OR VETERINARY USE FOR PRESERVING AND/OR IMPROVING SPERM” (priority 1996, published 2001).

Test system: spermatozoons of various animal species and of man

1-O-alkyl-2-acetyl-sn-glycero-3-phosphocholine [PAF]
power of fertilisation of ovocytes by treated spermatozoons (ovocytes of the rabbit and of the mouse): increases their power of fertilisation
motor function of the spermatozoons (various animal species and man): increases the motor function
